In US20150353495A1 (PORTOLA PHARMACEUTICALS, INC., priority 2010, published 2015):

Experiments:
[1] = target: T1, JAK2 (Homo sapiens, UniProt O60674); test: Z'-LYTE kinase assay JAK2; assay type: biochemical
T1 construct: 5 μl of catalytic domain recombinant Kinase enzyme+Tyr peptide substrate (Invitrogen, CA); purchased Invitrogen
Outline: (§1)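 Catalytic-domain recombinant kinase was incubated with Tyr6 FRET peptide, ATP and compound (1% DMSO final) for 1 h at room temperature. Protease development followed for 1 h, cleaving only non-phosphorylated peptide. Inhibition of phosphorylation was read as coumarin/fluorescein FRET fluorescence.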

[2] = target: T2, TYK2 (Homo sapiens, UniProt P29597); test: Z'-LYTE kinase assay TYK2; assay type: biochemical
T2 construct: 5 μl of catalytic domain recombinant Kinase enzyme+Tyr peptide substrate (Invitrogen, CA); purchased Invitrogen
T2 sequence (P29597 897-1176 limits assumed): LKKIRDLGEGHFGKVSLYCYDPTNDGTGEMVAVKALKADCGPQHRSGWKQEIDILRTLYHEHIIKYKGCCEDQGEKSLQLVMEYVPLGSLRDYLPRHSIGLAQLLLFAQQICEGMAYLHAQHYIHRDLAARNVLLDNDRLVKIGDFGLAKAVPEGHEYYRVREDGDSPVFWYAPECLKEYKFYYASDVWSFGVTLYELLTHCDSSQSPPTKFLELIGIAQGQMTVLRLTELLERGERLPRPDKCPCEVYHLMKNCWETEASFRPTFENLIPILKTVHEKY
Method: JAK and TYK2 tyrosine phosphorylation activity is measured using the Z′-LYTE™ Technology developed by Invitrogen Corporation (Carlsbad, Calif.). For JAK1, JAK2 and JAK3 the Z′-LYTE™ Kinase Assay Kit-Tyr6 Peptide (part number PV4122) was used. For TYK2 the Z′-LYTE™ Kinase Assay Kit-Tyr6 Peptide (part number PV3192) was used. The Z′-LYTE™ biochemical assay employs a fluorescence resonance energy transfer (FRET) coupled-enzyme format and is based on the differential sensitivity of phosphorylated and non-phosphorylated peptides to proteolitic cleavage. The assay uses a synthetic peptide substrate that is labelled with a donor fluorophore (coumarin) and an acceptor fluorophore (fluorescein) that make up a FRET pair. In the primary reaction (the Kinase Reaction), the kinase transfers the γ-phosphate of ATP to a single tyrosine residue on the substrate, while the presence of a kinase inhibitor in the primary reaction suppresses phosphorylation. In the secondary reaction (the Development Reaction), a site-specific protease (the Development Reagent) is added. The development buffer quenches the Kinase Reaction, while the protease recognizes and cleaves non-phosphorylated Z′-LYTE™ peptide substrate. Cleavage disrupts FRET between the donor and acceptor fluorophores on the non-phosphoryleted substrate, while uncleaved, phosphorylated substrate maintains FRET.
To test the ability of candidate molecules to inhibit JAK tyrosine phosphorylation activity, molecules are reconstituted in 100% DMSO and serially diluted 1:10 in polypropylene v-bottom microtiter plates. The candidate molecules are then diluted 1:25 into kinase buffer and 2.5 μl transferred into duplicate wells of a 384 well low volume black microtiter assay plate (Corning, USA). The final DMSO concentration in the assay is 1%. The kinase reaction contains 2.5 μl of a candidate molecule, 5 μl of catalytic domain recombinant Kinase enzyme+Tyr peptide substrate (Invitrogen, CA) and 2.5 μl ATP (Invitrogen, CA). The kinase reaction is allowed to procede for 1 hour at room temperature. The protease reaction is initiated by the addition of 5 μl Development Reagent (Invitrogen, CA). After 1 hour incubation at room temperature the fluorescence is measured using a FlexStation plate reader (Molecular Devices, Sunnyvale, Calif.). The reader settings used are as follows: Fluorescence mode, endpoint, top read, excitation 400 nm, emission 445 nm and 520 nm, Auto Cutoff 435 nm and 515 nm, PMT sensitivity high, 6 reads per well Inhibition of JAK kinase activity is calculated as the percent phosphorylation of substrate in the presence of inhibitor compared to the percent phosphorylation of substrate in the absence of inhibitor. IC50's were derived using Xlfit 4.3 (IDBS, UK), 4 parameter logistic model 205: Y=(A+4B-A)/(1+((C/x)AD)))).

[3] = target: T3, JAK3 (Homo sapiens, UniProt P52333); test: Z'-LYTE kinase assay JAK3; assay type: biochemical
T3 construct: 5 μl of catalytic domain recombinant Kinase enzyme+Tyr peptide substrate (Invitrogen, CA); purchased Invitrogen
Outline: as §1

[4] = target: T4, JAK1 (Homo sapiens, UniProt P23458); test: Z'-LYTE kinase assay JAK1; assay type: biochemical
T4 construct: 5 μl of catalytic domain recombinant Kinase enzyme+Tyr peptide substrate (Invitrogen, CA); purchased Invitrogen
Outline: as §1

[5] = system: JAK1/3 signaling to STAT6 in Ramos B cells; test: IL4 stimulation of JAK1/3 signaling to STAT6 in Ramos B cells (pSTAT6 Y641, FACS); assay type: cell-based; details: Homo sapiens; for inhibition at 0.2 µM: 0.2 uM compound, read-out: IL-4/STAT6 in Ramos Percent Inhibition at 0.2 uM; for inhibition at 1 µM: 1.0 uM compound, read-out: IL-4/STAT6 in Ramos Percent Inhibition at 1.0 uM
Method: IL4 stimulation of JAK1/3 signaling to STATE in Ramos B cells:
As an alternative strategy to measure effect of JAK3 inhibitors on JAK1/3 dependent cytokine signaling pathways, IL4 stimulation of the Ramos Burkett's B cell line is used. IL4 engages a receptor consisting of the IL4 receptor alpha chain and the common gamma chain. […] Ramos B cells are suspended in tissue culture media containing 10% fetal calf serum at 10×10̂6 cells/ml. 100 μl aliquots are pre-treated for 1 hour with various concentrations of compound, and then stimulated for 15 minutes with 15 ng IL4. The signaling reaction is terminated by fixing in 2% paraformaldehyde for 10 minutes at room temperature. Fixed cells are then washed and permeablized by suspension in 100% methanol at −80° C. Following overnight incubation at 4° C., cells are washed and resuspended in PBS containing 0.5% bovine serum albumin containing pSTAT6 Y641-PE conjugated antibody. After 1 hour incubation, cells are washed and the extent of STAT6 phosphorlyation in Ramos cells is measured by FACS analysis.

T4 sequence (P23458 875-1153 limits assumed): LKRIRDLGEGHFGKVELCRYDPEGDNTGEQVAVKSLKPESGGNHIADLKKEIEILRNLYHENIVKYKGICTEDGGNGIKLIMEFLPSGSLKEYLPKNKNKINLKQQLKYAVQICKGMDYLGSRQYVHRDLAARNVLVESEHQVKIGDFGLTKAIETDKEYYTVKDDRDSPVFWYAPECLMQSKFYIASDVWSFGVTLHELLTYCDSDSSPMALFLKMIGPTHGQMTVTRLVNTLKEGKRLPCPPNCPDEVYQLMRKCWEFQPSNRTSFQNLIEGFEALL
T1 sequence (O60674 849-1124 limits assumed): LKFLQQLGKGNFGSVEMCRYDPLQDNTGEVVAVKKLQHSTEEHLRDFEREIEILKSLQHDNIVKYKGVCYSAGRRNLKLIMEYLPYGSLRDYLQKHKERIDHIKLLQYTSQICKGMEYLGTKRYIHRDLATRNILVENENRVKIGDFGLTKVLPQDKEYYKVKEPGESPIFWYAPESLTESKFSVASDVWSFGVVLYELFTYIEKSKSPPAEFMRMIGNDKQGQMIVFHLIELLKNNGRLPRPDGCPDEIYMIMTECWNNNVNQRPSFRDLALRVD
T3 sequence (P52333 822-1111 limits assumed): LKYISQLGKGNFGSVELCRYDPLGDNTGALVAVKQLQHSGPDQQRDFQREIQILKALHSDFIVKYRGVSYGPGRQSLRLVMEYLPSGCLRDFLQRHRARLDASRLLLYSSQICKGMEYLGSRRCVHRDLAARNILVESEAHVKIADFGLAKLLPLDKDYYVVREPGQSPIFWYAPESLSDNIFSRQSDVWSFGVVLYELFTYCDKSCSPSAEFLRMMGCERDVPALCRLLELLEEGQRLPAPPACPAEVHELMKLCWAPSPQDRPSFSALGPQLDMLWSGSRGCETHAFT

SMILES | IC50 [1] | IC50 [2] | IC50 [3] | IC50 [4] | inhibition at 0.2 µM [5] | inhibition at 1 µM [5]
CNC(=O)[C@H]1CCCN(c2ccc(Nc3cc(NCc4ccccc4)c(C(N)=O)cn3)cc2)C1 [Example 4, (S)-4-(benzylamino)-6-(4-(3-(methylcarbamoyl)piperidin-1-yl)phenylamino)nicotinamide] | 0.1 to 1 µM | 0.1 to 1 µM | 0.001 to 0.01 µM | 0.1 to 1 µM | 32% | 68%
CNC(=O)[C@@H]1CCCN(c2ccc(Nc3cc(NCc4ccccc4)c(C(N)=O)cn3)cc2)C1 [Example 6, (R)-4-(benzylamino)-6-(4-(3-(methylcarbamoyl)piperidin-1-yl)phenylamino)nicotinamide] | 0.1 to 1 µM | 0.1 to 1 µM | 0.001 to 0.01 µM | 0.1 to 1 µM | 39% | 65%
Cc1ccc(Nc2cc(NCc3ccccc3)c(C(N)=O)cn2)cc1 [Example 10, 4-(benzylamino)-6-(p-tolylamino)nicotinamide] | > 1 µM | > 1 µM | 0.1 to 1 µM | > 1 µM | 6% | 20%
COc1cccc(Nc2cc(NCc3ccccc3)c(C(N)=O)cn2)c1 [Example 11, 4-(benzylamino)-6-(3-methoxyphenylamino)nicotinamide] | > 1 µM | > 1 µM | 0.01 to 0.1 µM | > 1 µM | 11% | 15%
COc1cc(Nc2cc(NCc3ccccc3)c(C(N)=O)cn2)ccc1C(=O)N(C)C [Example 436, 4-(benzylamino)-6-(4-(dimethylcarbamoyl)-3-methoxyphenylamino)nicotinamide] | 0.1 to 1 µM | 0.1 to 1 µM | 0.001 to 0.01 µM | > 1 µM |  | 
CC(=O)N1CCC[C@H](CNc2cc(Nc3ccc(C(=O)N(C)C)c(C)c3)ncc2C(N)=O)C1 [Example 443] | 0.1 to 1 µM | 0.1 to 1 µM | 0.001 to 0.01 µM | > 1 µM |  | 
Cc1cc(Nc2cc(NCc3ccccc3)c(C(N)=O)cn2)ccc1C(=O)N1CCCC1 [Example 446, 4-(benzylamino)-6-(3-methyl-4-(pyrrolidine-1-carbonyl)phenylamino)nicotinamide] | 0.01 to 0.1 µM | 0.1 to 1 µM | 0.001 to 0.01 µM | 0.1 to 1 µM |  | 
Cc1cc(Nc2cc(NCc3ccccc3)c(C(N)=O)cn2)ccc1C(=O)N1CCOCC1 [Example 447, 4-(benzylamino)-6-(3-methyl-4-(morpholine-4-carbonyl)phenylamino)nicotinamide] | 0.01 to 0.1 µM | 0.1 to 1 µM | 0.001 to 0.01 µM | 0.1 to 1 µM |  | 
Cc1cc(Nc2cc(NCc3ccccc3)c(C(N)=O)cn2)ccc1C(=O)N1CCC1 [Example 448, 6-(4-(azetidine-1-carbonyl)-3-methylphenylamino)-4-(benzylamino)nicotinamide] | 0.01 to 0.1 µM | 0.01 to 0.1 µM | 0.001 to 0.01 µM | 0.1 to 1 µM |  | 
Cc1cc(Nc2cc(NCc3ccccc3)c(C(N)=O)cn2)ccc1C(=O)N(C)C1CC1 [Example 450, 4-(benzylamino)-6-(4-(cyclopropyl(methyl)carbamoyl)-3-methylphenylamino)nicotinamide] | 0.1 to 1 µM | 0.01 to 0.1 µM | 0.001 to 0.01 µM | 0.1 to 1 µM |  | 

More lines, main results first:

IC50 [1] | IC50 [2] | IC50 [3] | IC50 [4] | SMILES | inhibition at 0.2 µM [5] | inhibition at 1 µM [5]
0.01 to 0.1 µM | 0.1 to 1 µM | 0.01 to 0.1 µM | 0.1 to 1 µM | CC(=O)N1CCN(c2ccc(Nc3cc(NCc4ccccc4)c(C(N)=O)cn3)cc2)CC1 [Example 3, 6-(4-(4-acetylpiperazin-1-yl)phenylamino)-4-(benzylamino)nicotinamide] | 22% | 43%
0.1 to 1 µM | 0.1 to 1 µM | 0.001 to 0.01 µM | 0.1 to 1 µM | CC(=O)N1CCN(c2ccc(Nc3cc(NCc4ccccc4)c(C(N)=O)cn3)cc2C)CC1 [Example 5, 6-(4-(4-acetylpiperazin-1-yl)-3-methylphenylamino)-4-(benzylamino)nicotinamide] | 37% | 61%
0.1 to 1 µM | > 1 µM | 0.001 to 0.01 µM | 0.1 to 1 µM | CNC(=O)[C@@H]1CCCN(c2ccc(Nc3cc(N[C@H](C)c4ccccc4)c(C(N)=O)cn3)cc2)C1 [Example 8, 6-(4-((R)-3-(methylcarbamoyl)piperidin-1-yl)phenylamino)-4-((R)-1-phenylethylamino)nicotinamide] | 8% | 30%
0.1 to 1 µM | > 1 µM | 0.01 to 0.1 µM | > 1 µM | COc1ccc(Nc2cc(NCc3ccccc3)c(C(N)=O)cn2)cc1 [Example 12, 4-(benzylamino)-6-(4-methoxyphenylamino)nicotinamide] | 15% | 11%
0.1 to 1 µM | 0.1 to 1 µM | 0.001 to 0.01 µM | > 1 µM | CN(C)C(=O)c1ccc(Nc2cc(NCc3ccccc3)c(C(N)=O)cn2)cc1Cl [Example 437, 4-(benzylamino)-6-(3-chloro-4-(dimethylcarbamoyl)phenylamino)nicotinamide] |  | 
0.01 to 0.1 µM | 0.1 to 1 µM | 0.001 to 0.01 µM | 0.1 to 1 µM | Cc1cc(Nc2cc(NCc3ccccc3)c(C(N)=O)cn2)ccc1C(=O)N(C)C [Example 438, 4-(benzylamino)-6-(4-(dimethylcarbamoyl)-3-methylphenylamino)nicotinamide] |  | 
0.1 to 1 µM | 0.1 to 1 µM | 0.001 to 0.01 µM | 0.1 to 1 µM | Cc1cc(Nc2cc(NCc3ccccc3)c(C(N)=O)cn2)ccc1C(=O)NCCO [Example 449, 4-(benzylamino)-6-(4-(2-hydroxyethylcarbamoyl)-3-methylphenylamino)nicotinamide] |  | 
0.01 to 0.1 µM | 0.1 to 1 µM | 0.001 to 0.01 µM | 0.1 to 1 µM | Cc1cc(Nc2cc(NCc3ccccc3)c(C(N)=O)cn2)ccc1C(=O)N1CC=CC1 [Example 451, 4-(benzylamino)-6-(4-(2,5-dihydro-1H-pyrrole-1-carbonyl)-3-methylphenylamino)nicotinamide] |  | 
0.01 to 0.1 µM | 0.1 to 1 µM | 0.001 to 0.01 µM | 0.1 to 1 µM | Cc1cc(Nc2cc(NCc3ccccc3)c(C(N)=O)cn2)ccc1C(=O)N(C)CCO [Example 452] |  | 
0.01 to 0.1 µM | 0.1 to 1 µM | 0.001 to 0.01 µM | 0.1 to 1 µM | COCCN(C)C(=O)c1ccc(Nc2cc(NCc3ccccc3)c(C(N)=O)cn2)cc1C [Example 453, 4-(benzylamino)-6-(4-((2-methoxyethyl)(methyl)carbamoyl)-3-methylphenylamino)nicotinamide] |  | 
